Data from patent US8841257B2, “Inhibitors of STAT3 and uses thereof” (Board of Regents, The University of Texas System, priority 2009, dated 2014).
“Also recorded” adds a separate entry of the source.

What was measured:
STAT1 = molecular target: T1, STAT1 (Homo sapiens, UniProt P42224); assay: IFNγ-stimulated phosphoStat1 in BT20 cells; format: cell-based; design: endogenous in cells; host or cells: BT20 breast tumor cells; settings: 5 μM, 2 h, then IFNγ 25 ng/mL, 20 and 45 min
T1 sequence (P42224 1-750): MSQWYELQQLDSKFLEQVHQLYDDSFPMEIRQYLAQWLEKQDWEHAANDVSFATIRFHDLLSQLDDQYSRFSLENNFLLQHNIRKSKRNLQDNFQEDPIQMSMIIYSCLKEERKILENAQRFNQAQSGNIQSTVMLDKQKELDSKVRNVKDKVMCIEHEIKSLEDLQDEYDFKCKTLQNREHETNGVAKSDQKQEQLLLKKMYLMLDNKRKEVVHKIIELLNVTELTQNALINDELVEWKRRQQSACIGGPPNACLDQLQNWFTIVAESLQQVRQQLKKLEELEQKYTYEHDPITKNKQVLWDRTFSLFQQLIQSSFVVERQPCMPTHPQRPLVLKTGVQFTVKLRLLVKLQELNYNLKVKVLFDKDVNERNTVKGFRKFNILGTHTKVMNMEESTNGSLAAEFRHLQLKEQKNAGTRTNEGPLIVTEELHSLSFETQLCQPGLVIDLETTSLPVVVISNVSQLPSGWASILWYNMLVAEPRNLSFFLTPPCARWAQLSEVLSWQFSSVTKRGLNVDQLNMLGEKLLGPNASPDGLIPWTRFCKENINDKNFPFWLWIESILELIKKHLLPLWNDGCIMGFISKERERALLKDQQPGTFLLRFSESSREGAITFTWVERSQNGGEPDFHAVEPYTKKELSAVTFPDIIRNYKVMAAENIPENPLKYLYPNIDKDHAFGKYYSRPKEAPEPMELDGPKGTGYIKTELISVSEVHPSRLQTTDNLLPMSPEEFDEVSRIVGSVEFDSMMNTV
Procedure: The compounds are selective for STAT3 over STAT1 in BT20 breast tumor cells. BT20 cells prepared as above and were treated with 5 μM of the compound of Example 1 for two hours then were treated with 25 ng/mL of interferon γ (IFNγ). […] (FIG. 4, bottom panel).

[1] = system: xenografts of MDA-MB-468 cells; assay: MDA-MB-468 xenograft in nude mice, intratumoral injection; format: in vivo
Procedure: After 15 days mice were separated into three groups. Group 1 received PBS, group 2 received 20% hydroxypropyl-β-cyclodextrin (Trappsol) in PBS and group 3 received 10 mM of the compound in 20% Trappsol/PBS. Injections of 50 μL were made directly into the tumors. PBS is a phosphate buffered saline having pH7. Mice were treated daily for 5 days, given two days of rest and were treated for 5 days. On day 16 mice were treated and two hours later tumors were harvested, divided into two parts. The first part was frozen and the other was fixed in formalin for immunohistochemistry. Average tumor volume increased 2.3 and 2.5-fold in PBS and Trappsol/PBS vehicle controls, respectively.
Efficacy of Compound of Example 1 in animal models. […] Nu/nu Nude mice were injected in the mammary fat pad with 2×10^6 MDA-MB-468 cells suspended in matrigel. After 15 days mice were separated into three groups. Group 1 received PBS, group 2 received 20% hydroxypropyl-β-cyclodextrin (Trappsol) in PBS and group 3 received 10 mM of the compound of Example 1 in 20% Trappsol/PBS. PBS is a phosphate buffered saline with pH7. Injections of 50 μL were made directly into the tumors. Mice were treated daily for 5 days, given two days of rest and were treated for 5 days. On day 16 mice were treated and two hours later tumors were harvested, divided into two parts. The first part was frozen and the other was fixed in formalin for immunohistochemistry.

[2] = system: MDA-MB-231 and SUM149 cells; assay: Vasculogenic mimicry exhibited by breast cancer cells; format: cell-based; settings: 5 μM in DMSO; 24 hours
Procedure: Cells were treated with 5 μM of the compounds from examples 1 and 8 formulated in DMSO or with DMSO alone as a control. To highlight the matrix-associated vascular channels that were formed, cells were stained with periodic acid-Schiff (PAS) reagent. Representative photographs were taken at 24 hours at —10 magnification. Each experiment was repeated 3 times.

VEGF = assay: Inhibition of VEGF expression in lung tumor cells (ELISA); format: cell-based, human; settings: single dose of 5 μM; HCC-827
Procedure: Inhibition of VEGF expression in lung tumor cells. HCC-827 were seeded in 6-well plates at a density of 4×10^5 cells. The following day, the media was replaced with fresh media containing low serum and treated either the compound from example 16 at a concentration of 5 μM. The cells were incubated at 37° C. and the supernatant was collected at 2, 4, 24, 48 and 72 hours post treatment. The supernatant was centrifuged at 2000 rpm for 3 minutes, transferred to fresh tubes and stored at −20 for further analysis. The supernatants were diluted six times with distilled water.

HUVEC cells = assay: Inhibition of tube formation in HUVEC cells; format: cell-based; settings: overnight; 0.01-5.0 μM tested
Procedure: Inhibition of tube formation in HUVEC cells. […] Briefly, 1×10^4 HUV endothelial cells were seeded on the surface of the polymerized EC matrix gel per well, treated with either DMSO or 0.01 μM, 0.1 μM, 0.2 μM, 0.5 μM, 1.0 μM, 2.0 μM, and 5.0 μM of the compound from Example 1 and the compound from Example 16. The cells were incubated overnight at 37° C. The next day the tubes were observed and the images were captured using a Nikon phase contrast inverted microscope.

normal cells = assay: Effect on normal cells in the cell growth assay; format: cell-based
Procedure: Lung Tumor Cell Viability Assay: H1819, H1299 and H827 lung tumor cells were seeded in 6-well plates at a density of 6×10^4, 4×10^4 and 5×10^4 cells/well, respectively. Prodrugs were dissolved in DMSO to make a stock concentration of 500 μM. The following day the cells were treated either with DMSO alone or with 0.25 μM, 0.5 μM, 1.0 μM, 2.5 μM and 5.0 μM of the compounds from Example 1, Example 16, and Example 22. Seventy two h after treatment with the drug the cells were subjected to cell viability assay using trypan blue. […] Cells were plated and after 24 hr were treated with the compound of Example 16 in DMSO. After 72 hr, cells were counted. Note that vertical axes are different for each plot.

Structure (SMILES) | IFNγ-stimulated increase in phosphoStat1 (STAT1) | growth of breast tumor xenograft ([1]; 10 mM in 20% Trappsol/PBS, 50 μL intratumoral) | increase in average tumor volume ([1]; 10 mM in 20% Trappsol/PBS, 50 μL intratumoral, vehicles 2.3 and 2.5-fold) [fold] | tumor center histology (cellularity, necrosis) ([1]; centers / interior of tumors) | tumor vascularity (CD31 staining, microvessels) ([1]; centers / interior of tumors) | Ki-67 staining of proliferating cells ([1]; treated tumors) | phosphorylation of STAT3 in treated tumors vs vehicle controls ([1]; tumors harvested 2 h after last treatment) | vasculogenic mimicry [2] | time up to which expression and excretion of VEGF is inhibited (VEGF) | concentration at which significant reduction in tube formation was observed (HUVEC cells) [µM] | effect on normal cells compared to vehicle DMSO (normal cells)
C/C(=C\C(=O)N[C@H]1CCc2cccc3c2N(C1=O)[C@H](C(=O)N[C@H](C)CCC(N)=O)C3)c1ccc(C(F)(F)P(=O)(OCOC(=O)C(C)(C)C)OCOC(=O)C(C)(C)C)cc1 [Example 1, (2E)-3-[4-[[bis[(2,2-dimethyl-1-oxopropoxy)methoxy]phosphinyl]difluoromethyl]phenyl]-but-2-enoyl-Haic-(R)-4-aminopentamide] | did not inhibit | inhibited; also recorded: inhibits the growth | 1.6 | necrosis; also recorded: notably acellular | avascular | decrease in Ki-67 staining | reduced; also recorded: strongly inhibited | Significant reduction | – | – | –
CCCC[C@H](NC(=O)/C=C(\C)c1ccc(C(F)(F)P(=O)(OCOC(=O)C(C)(C)C)OCOC(=O)C(C)(C)C)cc1)C(=O)N1C[C@H]2CC2[C@H]1C(=O)N[C@@H](CCC(N)=O)[C@@H](C)OCc1ccccc1 (stereo partly drawn) [Example 16, (2E)-3-[4-[[bis[(2,2-dimethyl-1-oxopropoxy)methoxy]phosphinyl]difluoromethyl]phenyl]-but-2-enoyl-norleucinyl-(2S,3R,4S)-methanoprolinyl-(4S,5R)-4-amino-5-benzyloxyhexamide] | – | – | – | – | – | – | – | – | up to 24 hr | 2 | negligible effects
